From a melting point compilation (Tetko et al.; mined from patent text by program, amines drawn as free bases though some values may be those of a salt)

First: CCNC(CC)c1ccc(Cl)c2nc3n(c12)CCCN3c1ccc(Cl)cc1Cl (stereo unspecified)
Second: CCN(CC)C(=O)c1cc2ccc(Cl)cc2c(-c2ccccc2Cl)n1
The melting point of the first is lower: 124 to 127 °C for the first, 145 °C for the second.

First: COc1cc(Nc2c(C#N)cnc3cc(-c4ccc(CN5CCC(O)CC5)s4)ccc23)c(Cl)cc1Cl
Second: O=C(O)C=Cc1ccc(-c2ccc3ncnc(Nc4ccc(OCc5cccc(F)c5)c(Cl)c4)c3c2)s1
The melting point of the first is lower: 120 to 123 °C for the first, 252 °C for the second.

First: c1cc(NC2=NCCN2)ccc1Cc1ccc(OC2CCOCC2)cc1
Second: CCOc1ccc(NCc2ccc(N(C)C)cc2)cc1
The melting point of the first is higher: 169 to 170 °C for the first, 98 to 99 °C for the second.

First: CN(c1cccc2cc(C3=NCC(CC(=O)N4CCS(=O)(=O)CC4)S3)[nH]c12)S(=O)(=O)c1cccs1 (stereo unspecified)
Second: O=C(O)[C@H](CCc1ccccc1)NS(=O)(=O)c1ccc2c(c1)Cc1ccccc1O2
The melting point of the first is higher: 158 °C for the first, 138 to 142 °C for the second.

First: O=S1(=O)NCN(C2CC2)c2cc(Br)cc(C(F)(F)F)c21
Second: Cc1c(OCC(F)(F)F)ccnc1CS(=O)c1nc2cc(N3CCCCC3)c(F)cc2[nH]1 (stereo unspecified)
The melting point of the first is higher: 200 to 201 °C for the first, 99 to 100 °C for the second.

Compared with `COC(=O)c1ccc(C(C)C(C)NCC(O)c2ccc(O)c(CO)c2)cc1` (stereo unspecified), `CONC(=O)c1cc(C(=O)OC)c(O)c2ncc(Cc3ccc(F)cc3)cc12` is higher in melting point: 84.5 to 87 °C for the first, 200 to 201 °C for the second.

Compared with `CC(CNC(=O)Cc1ccccc1)Oc1ccccc1` (stereo unspecified), `CCSC1=N[C@@H](c2ccccc2)[C@H](c2ccccc2)N1` (relative stereo) is higher in melting point: 94 to 96 °C for the first, 130 to 132 °C for the second.

First: O=C(Nc1ccncc1)c1n[nH]c2ccc(-c3cncc4ccccc34)cc12
Second: Nc1cccnc1Nc1cc(Cl)ccc1C(=O)c1ccccc1
The melting point of the first is higher: > 250 °C for the first, 153 to 155 °C for the second.

Compared with `CCC(C)(C)Nc1c(N(Cc2ccc(Cl)cc2Cl)C(C)=O)c(=O)c1=O`, `COC(=O)C(C)(c1ccc([N+](=O)[O-])cc1)c1cc(C)c(C(=O)c2ccc(Cl)cc2)n1C` (stereo unspecified) is higher in melting point: 114 to 116 °C for the first, 181 to 182 °C for the second.

First: CCCCCCCCCC(C)(C)c1cc(C(=O)Nc2ccc(C(=O)O)cc2)ccc1OC
Second: CCCCCCN1CN(C)C=C1C(=O)NCCCCCCOc1ccc(OC)cc1
The melting point of the first is higher: 177 °C for the first, 35 to 36 °C for the second.

First: CCCc1cc(Cn2c(=O)ccc3c(CC)nc(CC)cc32)ccc1O[Si](C)(C)C(C)(C)C
Second: CCOC(=O)CCCn1cc(C(=O)c2ccc(OCc3ccc(C)cc3)c(O)c2)c2ccccc21
The melting point of the first is lower: 103 to 105 °C for the first, 125 to 127 °C for the second.

First: CNC(=O)c1cn(CCO)nc1[N+](=O)[O-]
Second: CCCOc1ccccc1Nc1ncc(C(=O)OCC)c(=O)[nH]1
The melting point of the first is lower: 138 to 140 °C for the first, 198 to 200 °C for the second.

First: COc1ccc(C2Sc3cc(Oc4ccc(Cl)cc4)ccc3NC(=O)C2O)cc1 (stereo unspecified)
Second: Cc1ccc(C(=O)c2ccc(Cl)cc2)cc1
The melting point of the first is higher: 243 to 245 °C for the first, 129 to 130 °C for the second.

Compared with `NC(=O)c1ncn(C2OC(COC(=O)c3ccccc3)C(O)C2O)n1` (stereo unspecified), `CCOC(=O)C1=C(C)NN=C(C(=O)OC)C1c1ccccc1C#N` (stereo unspecified) is higher in melting point: 182 to 184 °C for the first, 199 °C for the second.

First: Cn1cc(C2=C(c3c4n(c5ccccc35)CC(NC(=O)OC(C)(C)C)CC4)C(=O)NC2=O)c2ccccc21 (stereo unspecified)
Second: CC(C)(C)OC(=O)Nc1cc(OCc2ccccc2)c2ncccc2c1
The melting point of the first is lower: 159 to 163 °C for the first, 180 to 181 °C for the second.

First: CN(C)N=C(c1ccccc1)c1cc(C(C)(C)C)c(O)c(C(C)(C)C)c1
Second: Cc1ccc2c(c1)CC(=O)c1cc(C(C)C(=O)O)ccc1S2 (stereo unspecified)
The melting point of the first is lower: 111 to 124 °C for the first, 157 to 159 °C for the second.

Compared with `CC1CC2C3CC(F)C4=CC(=O)C=CC4(C)C34OC4CC2(C)C1(O)C(=O)CO` (stereo unspecified), `Nc1ncnc2c1ccn2C1C=CC(CO)C1` (stereo unspecified) is lower in melting point: 241 to 242 °C for the first, 165 to 168 °C for the second.

First: N#CC1=C(C2CCN(C(=N)N)CC2)Nc2n[nH]cc2C1c1cccc2nonc12 (stereo unspecified)
Second: O=Cc1ccc(OCc2ccccc2)c(OC2CCCC2)c1
The melting point of the first is higher: > 270 °C for the first, 55 to 56 °C for the second.

First: CC(N)=CC(=O)C1=C(C)CCCC1(C)C
Second: COc1cccc(Sc2c(C)n(CC(=O)O)c3ccc(NS(C)(=O)=O)cc23)c1
The melting point of the first is lower: 124 to 125 °C for the first, 292 °C for the second.

Compared with `O=C(N=P(c1ccccc1)(c1ccccc1)c1ccccc1)OCC1CC1`, `CN1C(=O)CN=C(c2ccccc2F)c2c1ccc(NC(=O)Nc1ccc(Cl)cc1)c2Cl` is higher in melting point: 107 to 113 °C for the first, 285 °C for the second.

Compared with `O=C(O)CN1C(=O)C(=Cc2ccc(C(=O)O)cc2)SC1=S`, `O=C(Nc1c(OCCN(Cc2ccccc2)C(=O)C(F)(F)F)cccc1[N+](=O)[O-])C(F)(F)F` is lower in melting point: > 300 °C for the first, 114 to 115 °C for the second.

Compared with `O[C@@H](CNCCOc1ccc2oc(-c3noc(C(F)(F)F)n3)cc2c1)COc1ccccc1Cl`, `Nc1ccc2ccc(-c3ccc(F)cc3)nc2n1` is higher in melting point: 112 to 115 °C for the first, 175 °C for the second.

Compared with `CS(=O)(=O)Nc1ccc([N+](=O)[O-])cc1OC1CCCCC1`, `Cc1cc2c(Br)ccc([N+](=O)[O-])c2cn1` is higher in melting point: 136 to 137 °C for the first, 146 °C for the second.
